Experimental data reported in ChEMBL document CHEMBL1130905, “Asymmetric synthesis of antimitotic combretadioxolane with potent antitumor activity against multi-drug resistant cells” (Bioorg Med Chem Lett, 1998).

Columns and labels:
[1] = system: PC-12; assay: Compound was evaluated for in vitro growth inhibition activity against multi drug resistant (MDR) PC-12 cell line.; format: functional; conditions: Rattus norvegicus
[2] = system: PC-6; assay: Compound was evaluated for in vitro growth inhibition activity against sensitive PC-6 cell line.; format: functional, Rattus norvegicus
[3] = molecular target: T1, Tubulin (Sus scrofa, UniProt P02554+P02550); assay: In vitro tubulin polymerization-inhibitory activity; 4-6; format: protein assay
[4] = molecular target: T1, Tubulin; assay: In vitro tubulin polymerization-inhibitory activity.; format: protein assay

Compound	GI50 [1] [nM]	GI50 ([2]; Homo sapiens) [nM]	IC50 [3] [nM]	GI50 ([2]; Rattus norvegicus) [nM]	IC50 [4] [nM]
COc1ccc([C@@H]2OCO[C@H]2c2cc(OC)c(OC)c(OC)c2)cc1O	5.19	5.41	4000	–	–
CC[C@]1(O)C[C@H]2CN(CCc3c([nH]c4ccccc34)[C@@](C(=O)OC)(c3cc4c(cc3OC)N(C=O)[C@H]3[C@@](O)(C(=O)OC)[C@H](OC(C)=O)[C@]5(CC)C=CCN6CC[C@]43[C@@H]65)C2)C1 [VINCRISTINE]	104	1.14	–	–	–
CISPLATIN	300	–	–	563	–
COc1ccc([C@H]2OCO[C@@H]2c2cc(OC)c(OC)c(OC)c2)cc1O	–	–	–	–	> 50000
